Measured values from PubChem BioAssay (NCI).
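Following 48 hours of exposure in 96-well plates, responses at five concentrations were used to interpolate endpoints linearly. The concentration for full growth arrest is given as TGI.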

The compounds below were run on SF-539 CNS (assay: NCI-60 cell line screen, 48 h).

Row | SMILES | TGI [µM]
1 | COc1ccc(/C=C/c2nsc(/C=C/c3ccc(OC)cc3)n2)cc1 | > 100
2 | O=C1CSC(c2ccccc2O)N1c1ccc(-c2ccc(-n3c(-c4ccccc4)nc4ccccc4c3=O)cc2)cc1 (stereo not given) | > 100
3 | COc1ccc2c3c1O[C@H]1[C@@H](O)CC[C@@]4(O)[C@@H](C2)N(C)CC[C@]314 | > 100
4 | C(=N\c1nc2cc3sc(/N=C/c4cccs4)nc3cc2s1)/c1cccs1 | > 100

These compounds were tested on SR leukemia (assay: NCI-60 cell line screen, 48 h).

Row | SMILES | TGI [µM]
5 | NC(=S)N/N=C/c1c[nH]c2ccccc12 | > 100
6 | COc1ccc(/C=C/c2nsc(/C=C/c3ccc(OC)cc3)n2)cc1 | > 100
7 | O=C1CSC(c2ccccc2O)N1c1ccc(-c2ccc(-n3c(-c4ccccc4)nc4ccccc4c3=O)cc2)cc1 (stereo not given) | > 100
8 | COc1ccc2c3c1O[C@H]1[C@@H](O)CC[C@@]4(O)[C@@H](C2)N(C)CC[C@]314 | > 100
9 | C(=N\c1nc2cc3sc(/N=C/c4cccs4)nc3cc2s1)/c1cccs1 | > 100

Each compound was assayed on CCRF-CEM leukemia (assay: NCI-60 cell line screen, 48 h).

Row | SMILES | TGI [µM]
10 | NC(=S)N/N=C/c1c[nH]c2ccccc12 | > 100
11 | COc1ccc(/C=C/c2nsc(/C=C/c3ccc(OC)cc3)n2)cc1 | > 100
12 | O=C1CSC(c2ccccc2O)N1c1ccc(-c2ccc(-n3c(-c4ccccc4)nc4ccccc4c3=O)cc2)cc1 (stereo not given) | > 100
13 | COc1ccc2c3c1O[C@H]1[C@@H](O)CC[C@@]4(O)[C@@H](C2)N(C)CC[C@]314 | > 100
14 | C(=N\c1nc2cc3sc(/N=C/c4cccs4)nc3cc2s1)/c1cccs1 | > 100

Each compound was assayed on U251 CNS (assay: NCI-60 cell line screen, 48 h).

Row | SMILES | TGI [µM]
15 | NC(=S)N/N=C/c1c[nH]c2ccccc12 | > 100
16 | COc1ccc(/C=C/c2nsc(/C=C/c3ccc(OC)cc3)n2)cc1 | > 100
17 | O=C1CSC(c2ccccc2O)N1c1ccc(-c2ccc(-n3c(-c4ccccc4)nc4ccccc4c3=O)cc2)cc1 (stereo not given) | > 100
18 | COc1ccc2c3c1O[C@H]1[C@@H](O)CC[C@@]4(O)[C@@H](C2)N(C)CC[C@]314 | > 100
19 | C(=N\c1nc2cc3sc(/N=C/c4cccs4)nc3cc2s1)/c1cccs1 | > 100

These compounds were tested on A549 NSCLC (assay: NCI-60 cell line screen, 48 h).

Row | SMILES | TGI [µM]
20 | NC(=S)N/N=C/c1c[nH]c2ccccc12 | > 100
21 | COc1ccc(/C=C/c2nsc(/C=C/c3ccc(OC)cc3)n2)cc1 | > 100
22 | O=C1CSC(c2ccccc2O)N1c1ccc(-c2ccc(-n3c(-c4ccccc4)nc4ccccc4c3=O)cc2)cc1 (stereo not given) | 77.8
23 | COc1ccc2c3c1O[C@H]1[C@@H](O)CC[C@@]4(O)[C@@H](C2)N(C)CC[C@]314 | > 100
24 | C(=N\c1nc2cc3sc(/N=C/c4cccs4)nc3cc2s1)/c1cccs1 | > 100

The compounds below were run on PC-3 prostate (assay: NCI-60 cell line screen, 48 h).

Row | SMILES | TGI [µM]
25 | NC(=S)N/N=C/c1c[nH]c2ccccc12 | > 100
26 | COc1ccc(/C=C/c2nsc(/C=C/c3ccc(OC)cc3)n2)cc1 | > 100
27 | O=C1CSC(c2ccccc2O)N1c1ccc(-c2ccc(-n3c(-c4ccccc4)nc4ccccc4c3=O)cc2)cc1 (stereo not given) | 94.9
28 | COc1ccc2c3c1O[C@H]1[C@@H](O)CC[C@@]4(O)[C@@H](C2)N(C)CC[C@]314 | > 100
29 | C(=N\c1nc2cc3sc(/N=C/c4cccs4)nc3cc2s1)/c1cccs1 | > 100

The compounds below were run on MDA-N (assay: NCI-60 cell line screen, 48 h).

Row | SMILES | TGI [µM]
30 | NC(=S)N/N=C/c1c[nH]c2ccccc12 | > 100
31 | COc1ccc(/C=C/c2nsc(/C=C/c3ccc(OC)cc3)n2)cc1 | > 100
32 | O=C1CSC(c2ccccc2O)N1c1ccc(-c2ccc(-n3c(-c4ccccc4)nc4ccccc4c3=O)cc2)cc1 (stereo not given) | > 100
33 | COc1ccc2c3c1O[C@H]1[C@@H](O)CC[C@@]4(O)[C@@H](C2)N(C)CC[C@]314 | > 100
34 | C(=N\c1nc2cc3sc(/N=C/c4cccs4)nc3cc2s1)/c1cccs1 | > 100

These compounds were tested on COLO 205 colon (assay: NCI-60 cell line screen, 48 h).

Row | SMILES | TGI [µM]
35 | NC(=S)N/N=C/c1c[nH]c2ccccc12 | > 100
36 | COc1ccc(/C=C/c2nsc(/C=C/c3ccc(OC)cc3)n2)cc1 | > 100
37 | O=C1CSC(c2ccccc2O)N1c1ccc(-c2ccc(-n3c(-c4ccccc4)nc4ccccc4c3=O)cc2)cc1 (stereo not given) | 44.9
38 | COc1ccc2c3c1O[C@H]1[C@@H](O)CC[C@@]4(O)[C@@H](C2)N(C)CC[C@]314 | > 100
39 | C(=N\c1nc2cc3sc(/N=C/c4cccs4)nc3cc2s1)/c1cccs1 | 12.4

What follows are compounds tested on NCI/ADR-RES ovarian (assay: NCI-60 cell line screen, 48 h).

Row | SMILES | TGI [µM]
40 | NC(=S)N/N=C/c1c[nH]c2ccccc12 | > 100
41 | COc1ccc(/C=C/c2nsc(/C=C/c3ccc(OC)cc3)n2)cc1 | > 100
42 | O=C1CSC(c2ccccc2O)N1c1ccc(-c2ccc(-n3c(-c4ccccc4)nc4ccccc4c3=O)cc2)cc1 (stereo not given) | > 100
43 | COc1ccc2c3c1O[C@H]1[C@@H](O)CC[C@@]4(O)[C@@H](C2)N(C)CC[C@]314 | > 100
44 | C(=N\c1nc2cc3sc(/N=C/c4cccs4)nc3cc2s1)/c1cccs1 | > 100

These compounds were tested on HT29 colon (assay: NCI-60 cell line screen, 48 h).

Row | SMILES | TGI [µM]
45 | NC(=S)N/N=C/c1c[nH]c2ccccc12 | > 100
46 | COc1ccc(/C=C/c2nsc(/C=C/c3ccc(OC)cc3)n2)cc1 | > 100
47 | O=C1CSC(c2ccccc2O)N1c1ccc(-c2ccc(-n3c(-c4ccccc4)nc4ccccc4c3=O)cc2)cc1 (stereo not given) | 28.7
48 | COc1ccc2c3c1O[C@H]1[C@@H](O)CC[C@@]4(O)[C@@H](C2)N(C)CC[C@]314 | > 100
49 | C(=N\c1nc2cc3sc(/N=C/c4cccs4)nc3cc2s1)/c1cccs1 | > 100

The compounds below were run on CAKI-1 renal (assay: NCI-60 cell line screen, 48 h).

Row | SMILES | TGI [µM]
50 | NC(=S)N/N=C/c1c[nH]c2ccccc12 | > 100
51 | COc1ccc(/C=C/c2nsc(/C=C/c3ccc(OC)cc3)n2)cc1 | > 100
52 | O=C1CSC(c2ccccc2O)N1c1ccc(-c2ccc(-n3c(-c4ccccc4)nc4ccccc4c3=O)cc2)cc1 (stereo not given) | 69.1
53 | COc1ccc2c3c1O[C@H]1[C@@H](O)CC[C@@]4(O)[C@@H](C2)N(C)CC[C@]314 | > 100
54 | C(=N\c1nc2cc3sc(/N=C/c4cccs4)nc3cc2s1)/c1cccs1 | > 100

What follows are compounds tested on MDA-MB-231 breast (assay: NCI-60 cell line screen, 48 h).

Row | SMILES | TGI [µM]
55 | NC(=S)N/N=C/c1c[nH]c2ccccc12 | > 100
56 | COc1ccc(/C=C/c2nsc(/C=C/c3ccc(OC)cc3)n2)cc1 | > 100
57 | O=C1CSC(c2ccccc2O)N1c1ccc(-c2ccc(-n3c(-c4ccccc4)nc4ccccc4c3=O)cc2)cc1 (stereo not given) | > 100
58 | COc1ccc2c3c1O[C@H]1[C@@H](O)CC[C@@]4(O)[C@@H](C2)N(C)CC[C@]314 | > 100
59 | C(=N\c1nc2cc3sc(/N=C/c4cccs4)nc3cc2s1)/c1cccs1 | > 100

Each compound was assayed on MOLT-4 leukemia (assay: NCI-60 cell line screen, 48 h).

Row | SMILES | TGI [µM]
60 | NC(=S)N/N=C/c1c[nH]c2ccccc12 | > 100
61 | COc1ccc(/C=C/c2nsc(/C=C/c3ccc(OC)cc3)n2)cc1 | > 100
62 | O=C1CSC(c2ccccc2O)N1c1ccc(-c2ccc(-n3c(-c4ccccc4)nc4ccccc4c3=O)cc2)cc1 (stereo not given) | > 100
63 | COc1ccc2c3c1O[C@H]1[C@@H](O)CC[C@@]4(O)[C@@H](C2)N(C)CC[C@]314 | > 100
64 | C(=N\c1nc2cc3sc(/N=C/c4cccs4)nc3cc2s1)/c1cccs1 | > 100

Each compound was assayed on UACC-62 melanoma (assay: NCI-60 cell line screen, 48 h).

Row | SMILES | TGI [µM]
65 | NC(=S)N/N=C/c1c[nH]c2ccccc12 | > 100
66 | O=C1CSC(c2ccccc2O)N1c1ccc(-c2ccc(-n3c(-c4ccccc4)nc4ccccc4c3=O)cc2)cc1 (stereo not given) | > 100
67 | COc1ccc2c3c1O[C@H]1[C@@H](O)CC[C@@]4(O)[C@@H](C2)N(C)CC[C@]314 | > 100

These compounds were tested on SK-MEL-2 melanoma (assay: NCI-60 cell line screen, 48 h).

Row | SMILES | TGI [µM]
68 | NC(=S)N/N=C/c1c[nH]c2ccccc12 | > 100
69 | COc1ccc(/C=C/c2nsc(/C=C/c3ccc(OC)cc3)n2)cc1 | > 100
70 | COc1ccc2c3c1O[C@H]1[C@@H](O)CC[C@@]4(O)[C@@H](C2)N(C)CC[C@]314 | > 100
